Experimental data taken from patent US20100069343A1, “Methods of predicting steroid responsiveness with Il-1RII” (priority 2008, published 2010).
Several values for one entry are separate records, joined by “and”; a condition that tells them apart may be missing. Equal values may be shown once.

Columns and labels:
[1] = compared to placebo; cited from earlier work
IL-1RA, IL-1β = conditions: experimentally; cited from earlier work
patients with AIED = test: Prednisone treatment of AIED patients with sudden hearing decline, pre/post-treatment audiograms; assay type: in vivo, human; conditions: for AVG Improve: 60 mg prednisone daily 7 days then taper
Experimental: FIG. 5A. 10 patients with presumptive AIED and sudden declines in hearing were enrolled, blood samples were taken and then the patients were treated with 60 mg prednisone/day×7 days and then tapered. Post-treatment audiograms were obtained between 7-14 days later. Improvement (Δ) was measured as the average of 500, 1, 2, 4 & 8 kHz. […] The patient that improved 13.3 dB represented a patient that returned to normal hearing thresholds. PBMC were isolated, divided and cultured for 16 hours with either 0 μg/ml or increasing concentrations of dexamethasone (8, 20, 40 or 80 μg/ml). Fold changes in levels of mIL-1RII by Q-RT-PCR after in vitro challenge with dexamethasone (expressed as fold change over baseline) predicted steroid responsiveness in AIED. In data on 7 subjects, the fold-increase was log-transformed in order to better meet the assumptions of a normal distribution with equal variance.
Prospectively Enrolled, Steroid Treated Subjects. Ten patients with AIED who had not undergone cochlear implantation were studied in a separate IRB approved protocol. […] The responders were defined as a 10 dB or greater average improvement at 250, 500, 1000, 2000, 4000 and 8000 Hz. […] Furthermore, SNHL of greater than 30 dB at one or more frequencies in both ears with evidence of active deterioration (elevated threshold) in at least one ear of 15 dB at one frequency (excluding 250 or 8 kHz as a sole indicator), or 10 dB at 2+ frequencies developing in >3 days but <90 days (Niparko et al. 2005, Yeom et al. 2003). If the hearing loss evolved in less than 3 days, prior similar hearing declines must have occurred or the patient must have a systemic autoimmune disorder AND the patient must meet the audiology criteria outlined above. All patients with retrocochlear (vestibular schwannoma or other internal auditory canal s) pathology), patients who received prednisone or other immunosuppressive therapy within 3 months, or patients with vestibular symptoms coinciding with periods of hearing fluctuation were all excluded from this study. All patients received a minimum of 60 mg of prednisone daily for 7 days with a variable taper thereafter.
60% of patients studied by the AIED study group were steroid responsive (Niparko et al. 2005). In the present study, in vitro PBMC membrane-bound IL-IRII (mIL-1RII) mRNA expression in response to dexamethasone stimulation was compared to basal mIL-1RII expression in cultures of PBMCs collected prior to clinical steroid treatment. In addition, pre-treatment mIL-1RII expression was compared to post-treatment hearing recovery. Furthermore, pre- and post-treatment mIL-1RII expression were compared in a subset of clinical responders and non-responders. […] All responders returned to their prior baseline hearing thresholds at the end of the corticosteroid treatment. Non-responders were defined as less than 5 dB improvement at the same frequencies or further decline of pure tone thresholds. […] Of note, the dramatic difference in fold change of the corticosteroid responders is inversely proportional to basal mIL-1RII expression in PBMC (45 cycles, S.D. 0.0 in replicate samples) in an unstimulated condition, compared to corticosteroid non-responders (28.48 cycles, S.D.±3.34) (FIG. 5B, p<0.0001). In all patient samples, the unstimulated condition is the average of 2 independent cultured PBMC samples. Furthermore, post-steroid therapy mIL-1RII expression was determined in a subset of patients.

mIL-1RII = test: Pre- and post-steroid therapy mIL-1RII expression in PBMC by Q-RT-PCR; assay type: in vivo, human; conditions: subset
Experimental: FIG. 5B. Pre- and post-treatment mIL-1RII levels in a subset of clinical responders and non-responders. Responders have essentially zero basal mIL-1RII expression, compared with non-responders that have substantially higher basal levels.
Q-RT-PCR. Quantitative Real Time RT-PCR (Q-RT-PCR) was performed on PBMC from patients using TaqMan chemistry. The relative abundance of IL1R2 mRNA for 2 membrane bound (mIL-1RII) and the soluble (sIL-1RII) coding regions associated with the 2 Affymetrix probes sets 211372 (sIL-1RII) and 205403 (mIL-1RID compared to β-actin was determined using the Eurogentec RTqPCR mastermix (Eurogentec, Belgium) and ABI PRISM 7700 Sequence Detection System. Membrane bound IL-1RII, as reflected by Affymetrix probe set 205403 was detected by primers nt 1239-1258, 1295-1314, and taqman probe 1271-1278, whereas the shorter soluble form (sIL-1RII) reflected by the Affymetrix probe 211372 and primers nt 790-830-849, and taqman probe 820-827. […] Data was analyzed using Sequence Detection System software version 1.9.1. Results were expressed as Ct (Threshold cycle) values, which is inversely proportional to the starting template copy number. Relative abundance of IL1R2 in […] cells was calculated compared to untreated control samples using delta delta Ct method (User Bulletin #2, Applied Biosystems Inc). […]

TNF-α = conditions: animal studies, inner ear; cited from earlier work

CN(Cc1cnc2nc(N)nc(N)c2n1)c1ccc(C(=O)N[C@@H](CCC(=O)O)C(=O)O)cc1 [methotrexate]
maintenance of hearing [1]: could not maintain hearing
IL-1RA release (IL-1RA, IL-1β): stimulates IL-1RA release
IL-1β synthesis (IL-1RA, IL-1β): inhibits IL-1β synthesis

C[C@]12C=CC(=O)C=C1CC[C@@H]1[C@@H]2C(=O)C[C@@]2(C)[C@H]1CC[C@]2(O)C(=O)CO [prednisone]
hearing outcome of responders (patients with AIED; Responders (R), post-treatment audiograms 7-14 days later): returned to prior baseline hearing
AVG Improve (patients with AIED; patient 39WM (R3)): 13.3 dB and 13 dB
AVG Improve (patients with AIED; patient 42 (NR2)): 0 dB
AVG Improve (patients with AIED; patient 45WM (NR 5), (NS)): 1 dB
AVG Improve (patients with AIED; patient 54 (R2)): 33 dB
AVG Improve (patients with AIED; patient 56 (R1)): 38 dB
AVG Improve (patients with AIED; patient 56WM (NR1)): 0 dB
AVG Improve (patients with AIED; patient 57 (NR4)): 0 dB
AVG Improve (patients with AIED; patient 60WF (NR7), (NS)): 4 dB
AVG Improve (patients with AIED; patient 61HF (NR3)): 0 dB
AVG Improve (patients with AIED; patient 62 (NR6)): 0dB
mIL-1RII expression detected post-treatment (mIL-1RII; clinical non-responders, pre-treatment 30 cycles): 27 cycles
mIL-1RII expression detected post-treatment (mIL-1RII; clinical responders, pre-treatment no expression at 45 cycles): 30 cycles

Etanercept
TNF-α release after administration of antigen (TNF-α): can be reversed
